Assays:
[1] = target: T1, hSERT (Homo sapiens, UniProt P31645); conditions: read-out: [3H]Serotonin release EC50; HEK-hSERT cells; ref Gatch et al., 2011; cited from earlier work
[2] = target: T2, human 5-HT2A receptor (Homo sapiens, UniProt P28223); test: IP-1 formation, HEK-5-HT2A cells; format: cell-based
[3] = target: T3, human 5-HT2C receptor (Homo sapiens, UniProt P28335); test: cell-based
T3 sequence (P28335 33-458): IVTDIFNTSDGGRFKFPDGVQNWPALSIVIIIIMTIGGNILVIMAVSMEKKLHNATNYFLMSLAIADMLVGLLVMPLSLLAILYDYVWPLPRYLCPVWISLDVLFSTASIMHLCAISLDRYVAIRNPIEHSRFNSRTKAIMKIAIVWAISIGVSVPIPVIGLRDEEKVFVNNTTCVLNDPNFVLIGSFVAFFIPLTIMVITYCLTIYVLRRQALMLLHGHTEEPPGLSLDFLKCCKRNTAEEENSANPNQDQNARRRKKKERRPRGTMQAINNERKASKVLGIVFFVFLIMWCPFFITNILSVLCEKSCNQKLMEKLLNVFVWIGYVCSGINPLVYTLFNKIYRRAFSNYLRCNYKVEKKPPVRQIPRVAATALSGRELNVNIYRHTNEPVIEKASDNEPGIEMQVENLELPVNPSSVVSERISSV

[4] = target: T4, hNET (Homo sapiens, UniProt P23975); conditions: read-out: [3H]NE release EC50; HEK-hNET cells; ref Gatch et al., 2011; cited from earlier work
T4 sequence (P23975 whole entry): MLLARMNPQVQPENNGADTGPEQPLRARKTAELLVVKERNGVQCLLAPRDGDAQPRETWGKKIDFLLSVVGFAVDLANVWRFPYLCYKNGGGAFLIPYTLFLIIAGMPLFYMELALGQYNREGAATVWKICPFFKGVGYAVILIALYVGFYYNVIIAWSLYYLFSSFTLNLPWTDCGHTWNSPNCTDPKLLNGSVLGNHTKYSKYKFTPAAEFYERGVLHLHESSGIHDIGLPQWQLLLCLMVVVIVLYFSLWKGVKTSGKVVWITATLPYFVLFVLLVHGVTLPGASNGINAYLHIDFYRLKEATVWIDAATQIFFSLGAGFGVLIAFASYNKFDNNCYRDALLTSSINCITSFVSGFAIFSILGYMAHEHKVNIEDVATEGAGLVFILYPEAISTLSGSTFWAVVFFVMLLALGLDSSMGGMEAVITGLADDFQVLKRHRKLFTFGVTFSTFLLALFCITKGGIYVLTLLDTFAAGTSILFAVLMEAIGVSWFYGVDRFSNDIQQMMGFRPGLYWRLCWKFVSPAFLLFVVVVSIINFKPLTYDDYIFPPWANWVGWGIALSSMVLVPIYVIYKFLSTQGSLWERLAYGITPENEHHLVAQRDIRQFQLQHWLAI

[5] = target: T3, human 5-HT2C receptor; test: biochemical; format: binding; conditions: read-out: 5-HT2C [125I]DOI binding Ki ± sem
[6] = target: T5, hDAT (Homo sapiens, UniProt Q01959); test: [3H]Dopamine release, HEK-hDAT cells; format: cell-based; conditions: read-out: [3H]Dopamine release % METH maximal effect
T5 sequence (Q01959 whole entry): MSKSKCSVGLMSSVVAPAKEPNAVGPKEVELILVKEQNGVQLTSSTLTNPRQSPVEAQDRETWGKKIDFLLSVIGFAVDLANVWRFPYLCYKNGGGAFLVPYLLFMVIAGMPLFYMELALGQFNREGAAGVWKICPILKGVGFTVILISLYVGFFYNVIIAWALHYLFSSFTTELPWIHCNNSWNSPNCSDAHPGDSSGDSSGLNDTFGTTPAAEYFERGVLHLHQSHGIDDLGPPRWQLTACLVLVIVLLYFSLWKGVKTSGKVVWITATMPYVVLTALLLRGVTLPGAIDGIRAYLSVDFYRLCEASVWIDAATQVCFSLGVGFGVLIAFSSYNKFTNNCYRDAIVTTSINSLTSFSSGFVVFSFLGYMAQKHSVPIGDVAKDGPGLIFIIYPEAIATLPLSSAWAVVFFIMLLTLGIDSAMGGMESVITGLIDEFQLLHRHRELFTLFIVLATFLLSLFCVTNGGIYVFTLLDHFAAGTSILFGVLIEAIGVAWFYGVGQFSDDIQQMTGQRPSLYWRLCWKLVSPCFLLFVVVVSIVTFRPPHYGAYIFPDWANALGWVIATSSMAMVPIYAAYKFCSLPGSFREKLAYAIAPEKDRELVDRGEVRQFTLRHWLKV

[7] = target: T5, hDAT; test: [125I]RTI-55 binding, HEK-hDAT cells
[8] = target: T4, hNET; test: biochemical; format: binding
[9] = target: T5, hDAT; conditions: read-out: [3H]Dopamine release EC50; HEK-hDAT cells; ref Gatch et al., 2011; cited from earlier work
[10] = target: T4, hNET; test: cell-based
[11] = target: T6, human 5-HT1A receptor (Homo sapiens, UniProt P08908); test: [3H]8-OH-DPAT binding, HEK-5-HT1A
T6 sequence (P08908 1-422): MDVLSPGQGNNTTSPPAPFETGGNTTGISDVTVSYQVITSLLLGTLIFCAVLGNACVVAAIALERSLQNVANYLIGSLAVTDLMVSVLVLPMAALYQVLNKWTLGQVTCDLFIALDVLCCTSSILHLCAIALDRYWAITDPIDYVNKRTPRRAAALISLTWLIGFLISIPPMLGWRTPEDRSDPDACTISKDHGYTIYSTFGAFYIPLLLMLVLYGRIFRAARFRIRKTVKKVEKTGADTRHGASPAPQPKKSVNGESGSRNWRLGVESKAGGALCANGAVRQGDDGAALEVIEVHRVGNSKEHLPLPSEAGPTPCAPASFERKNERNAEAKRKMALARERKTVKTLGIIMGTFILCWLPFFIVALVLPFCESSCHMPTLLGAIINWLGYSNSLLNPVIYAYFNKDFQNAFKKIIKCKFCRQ

[12] = target: T6, human 5-HT1A receptor; test: [35S]GTPγS binding functional assay, HEK-5-HT1A; format: biochemical
[13] = target: T4, hNET; test: cell-based; conditions: read-out: [3H]NE release % METH maximal effect
[14] = target: T5, hDAT; test: [3H]Dopamine uptake, HEK-hDAT cells; format: cell-based
[15] = target: T1, hSERT; test: [125I]RTI-55 binding, HEK-hSERT cells
[16] = target: T2, human 5-HT2A receptor; test: [125I]DOI binding, HEK-5-HT2A cells

T2 sequence (P28223 whole entry): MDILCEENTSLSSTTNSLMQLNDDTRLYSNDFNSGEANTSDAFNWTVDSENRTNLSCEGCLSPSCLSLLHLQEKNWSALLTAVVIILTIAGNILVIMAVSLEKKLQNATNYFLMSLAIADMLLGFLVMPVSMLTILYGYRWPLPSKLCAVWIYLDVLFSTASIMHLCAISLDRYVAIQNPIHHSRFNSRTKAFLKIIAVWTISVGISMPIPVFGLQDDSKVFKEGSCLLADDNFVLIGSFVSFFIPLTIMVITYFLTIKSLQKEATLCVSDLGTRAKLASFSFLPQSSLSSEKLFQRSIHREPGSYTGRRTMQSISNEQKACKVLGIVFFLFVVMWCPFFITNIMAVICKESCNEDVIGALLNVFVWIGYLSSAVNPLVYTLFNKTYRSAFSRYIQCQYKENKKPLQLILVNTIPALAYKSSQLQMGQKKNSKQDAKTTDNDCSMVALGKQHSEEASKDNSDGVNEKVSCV
T1 sequence (P31645 whole entry): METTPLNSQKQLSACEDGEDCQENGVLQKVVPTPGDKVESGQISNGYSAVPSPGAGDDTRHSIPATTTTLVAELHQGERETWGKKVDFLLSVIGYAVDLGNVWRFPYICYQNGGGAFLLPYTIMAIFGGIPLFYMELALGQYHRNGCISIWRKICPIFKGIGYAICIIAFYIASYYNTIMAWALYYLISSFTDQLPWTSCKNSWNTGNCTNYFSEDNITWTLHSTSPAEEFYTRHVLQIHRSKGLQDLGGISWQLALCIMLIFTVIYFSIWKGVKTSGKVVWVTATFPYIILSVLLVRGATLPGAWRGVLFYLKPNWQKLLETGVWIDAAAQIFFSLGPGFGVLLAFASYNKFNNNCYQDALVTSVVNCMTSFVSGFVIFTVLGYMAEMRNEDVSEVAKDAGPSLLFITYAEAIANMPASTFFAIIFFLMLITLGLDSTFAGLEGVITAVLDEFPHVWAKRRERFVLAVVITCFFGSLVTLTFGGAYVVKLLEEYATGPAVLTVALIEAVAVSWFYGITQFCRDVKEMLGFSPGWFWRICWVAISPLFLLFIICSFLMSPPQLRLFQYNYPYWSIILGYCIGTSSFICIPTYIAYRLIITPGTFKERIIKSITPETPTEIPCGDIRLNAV

CN[C@@H](C)Cc1ccccc1 [METH, methamphetamine, reference compound]
EC50 [1]: 27.8 ± 7.7 µM
EC50 [2]: > 1 mM
Emax ([2]; read-out: 5-HT2A Function IP-1 formation % maximal effect): < 3%
EC50 [3]: 74 ± 16 µM
Emax ([3]; read-out: 5-HT2C Function IP-formation % maximal effect): 52 ± 10%
EC50 [4]: 67 ± 18 nM
Ki [5]: 10.1 ± 3.2 µM
Emax [6]: 100%
Ki [7]: 4.75 ± 0.53 µM
Ki [8]: 1480 ± 130 nM
EC50 [9]: 970 ± 250 nM
IC50 [10]: 23 ± 5.5 nM
Ki [11]: 9.7 ± 1.8 µM
EC50 [12]: 23.6 ± 8.1 µM
Emax ([12]; read-out: 5-HT1A Function [35S]GTPγS Binding % maximal effect): 68 ± 11%
Emax [13]: 100%
IC50 [14]: 56 ± 15 nM
Ki [15]: 188 ± 14 µM
Ki [16]: 41.9 ± 9.6 µM
